Assay: Test on solubility to polyethylene glycol (visual check for insoluble luliconazole)
Format: physicochemical
Procedure: Examined was how luliconazole is dissolved by polyethylene glycol 200 having an average molecular weight of 190 to 210, polyethylene glycol 300 having an average molecular weight of 285 to 315, polyethylene glycol 400 having an average molecular weight of 380 to 420, and polyethylene glycol 600 having an average molecular weight of 570 to 630, each of which is represented by the formula HOCH2(CH2OCH2)nCH2OH (where n is an integer). To this end, the above polyethylene glycols (manufactured by NOF Corporation) were mixed with luliconazole according to the formulation presented in Table 1 below, and the properties of the solution (presence of insoluble matter (luliconazole)) were visually evaluated.

- solubility for luliconazole (in polyethylene glycol 400 compared to polyethylene glycol 200, 300 and 600): highest solubility
- solubility for luliconazole (in polyethylene glycols 200, 300, 400, and 600): high solubility
Compound: N#C/C(=C1/SC[C@@H](c2ccc(Cl)cc2Cl)S1)n1ccnc1 [luliconazole, (R)-(−)-(E)-[4-(2,4-dichlorophenyl)-1,3-dithiolane-2-ylidene]-1-imidazolylacetonitrile]
